Test results reported in paper PMC6154719 (Molecules : A Journal of Synthetic Chemistry and Natural …, 2017).
One block for each compound: values may come before it.

Assays:
certain CYPs = test system: certain CYPs; parameters: method as in PMID 21287405; conditions: read-out: IC50, inhibition of certain CYPs; cited from earlier work
CYP1A2 = target: T1, CYP1A2 (Homo sapiens, UniProt P05177); experiment: CYP1A2 (EROD activity, 7-ethoxyresorufin O-deethylation) in human liver microsomes; assay type: in vitro ADME; conditions: liver microsomes, probe 7-ethoxyresorufin; human, 5 µM inhibitor
T1 construct: Frozen liver (both rat and human) was thawed; from tissue; host or cells: human liver microsomal fraction
T1 sequence (P05177 1-516): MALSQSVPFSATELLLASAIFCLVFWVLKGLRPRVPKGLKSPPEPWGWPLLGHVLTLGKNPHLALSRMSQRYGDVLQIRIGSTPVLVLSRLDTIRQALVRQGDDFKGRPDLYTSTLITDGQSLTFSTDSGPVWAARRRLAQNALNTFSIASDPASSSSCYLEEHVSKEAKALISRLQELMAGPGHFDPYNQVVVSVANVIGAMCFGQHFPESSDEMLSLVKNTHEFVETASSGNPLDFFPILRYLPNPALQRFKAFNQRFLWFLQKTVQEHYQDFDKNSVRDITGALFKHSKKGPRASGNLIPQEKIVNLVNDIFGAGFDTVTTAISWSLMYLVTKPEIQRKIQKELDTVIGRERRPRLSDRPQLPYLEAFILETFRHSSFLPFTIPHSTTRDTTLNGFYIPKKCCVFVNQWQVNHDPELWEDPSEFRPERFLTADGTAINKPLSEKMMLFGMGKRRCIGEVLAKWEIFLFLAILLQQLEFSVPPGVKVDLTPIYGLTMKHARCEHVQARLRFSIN
Protocol: (§1) Enzyme activities were assayed in human and rat liver cytosolic and microsomal fractions. The enzyme assays (each performed in 4–8 replicates) were repeated three times (HPLC measurement of CYP activities was repeated only twice, Table 3). Inhibition studies were carried out by incubation of specific substrates in the presence of sesquiterpenes (in the range 0–100 µM).
(§2) Enzyme activities of individual CYP forms were measured according to established protocols. The following microsomal CYP activities were tested: CYP2A6, coumarin 7-hydroxylation; CYP2B6, 7-ethoxy-4-(trifluoromethyl)coumarin 7-deethylation, CYP2C9, diclofenac 4′-hydroxylation, CYP2C19 assay, S-mephenytoin 4′-hydroxylation, CYP2D6 on bufuralol 1′-hydroxylation, CYP2E1, chlorzoxazone 6-hydroxylation and CYP3A4, testosterone 6β-hydroxylation, and midazolam 1′-hydroxylation. Activities were measured using the Prominence HPLC system (Shimadzu, Kyoto, Japan), equipped with a LiChroCART 250-4 LiChrospher 100 RP-18 column or Chromolith®HighResolution RP-18 end-capped column (Merck, Darmstadt, Germany) and UV or fluorescence detection, according to the cited literature. Further incubation details are described either in the corresponding references, as well as in the papers from this laboratory e.g., [42, 43, 44]. CYP1A2, 7-ethoxyresorufin O-deethylation, and CYP3A4/2B6 (human), CYP2B1 (rat), benzyloxyresorufin O-debenzylation were measured using the microplate reader Tecan Infinite M200 (Tecan Group; Mannedorf, Switzerland).
Sesquiterpenes CNER, TNER and FAR, non-volatile liquids, were pipetted, and proper concentration was calculated according to density. All compounds were dissolved in DMSO. […] All experiments were performed in three replicates, if not stated otherwise.
(§3) CNER, TNER and FAR at a fixed concentration of 100 µM were screened for inhibition of cytosolic AKR1A1, AKR1C, CBR1, NQO1, SULT, and GST, and microsomal CYPs and UGT. The degree of inhibition caused by sesquiterpenes was compared with non-inhibited control reactions, which contained solvent without sesquiterpenes.
The concentration of sesquiterpenes required for 50% inhibition of enzyme activity, the IC50 value, was determined. […] The IC50 values for each sesquiterpene were determined by plotting sigmoidal dose response curves of specific enzyme activity vs. logarithm of sesquiterpene concentration using GraphPad Prism version 6.07 for Windows (GraphPad Software Inc., La Jolla, CA, USA).
(§4) The kinetic inactivation study of the CYP1A2 (EROD activity) and CYP2B/3A (BROD activity), both in rat and human, with TNER, was performed to find out the mechanism of enzyme inhibition by this sesquiterpene. Mechanism of EROD and BROD inhibition was tested at the final ethoxyresorufin or benzyloxyresorufin concentrations 0.5–5.0 µM. The concentration of TNER was 5.0 µM.
(§5) Experimental data were fitted to the Michaelis-Menten equation, basic kinetic parameters were determined using the program GraphPad Prism version 6.07 for Windows. The type of inhibition was estimated using a Lineweaver-Burk (double-reciprocal) plot.

CYP2B/3A = CYP2B/3A (BROD activity, benzyloxyresorufin O-debenzylation) in human liver microsomes; assay type: in vitro ADME; conditions: probe benzyloxyresorufin
Protocol: as §1, §2
Sesquiterpenes CNER, TNER and FAR, non-volatile liquids, were pipetted, and proper concentration was calculated according to density. All compounds were dissolved in DMSO. The final solvent concentration in the inhibition assays was 1%, which had no effect on the enzyme activity (data not shown). Non-enzymatic interference of sesquiterpenes with some compounds in the reaction mixtures (e.g., fluorescence enhancing or quenching) was considered and excluded. All experiments were performed in three replicates, if not stated otherwise.
as §3
The concentration of sesquiterpenes required for 50% inhibition of enzyme activity, the IC50 value, was determined. Their final concentrations in the reaction mixture were proposed to cover the entire inhibitory range of these compounds (1–100 µM). The IC50 values for each sesquiterpene were determined by plotting sigmoidal dose response curves of specific enzyme activity vs. logarithm of sesquiterpene concentration using GraphPad Prism version 6.07 for Windows (GraphPad Software Inc., La Jolla, CA, USA).
as §4, §5

Jurkat = test system: Jurkat; parameters: method as in earlier work; conditions: Jurkat cell line; cited from earlier work
HeLa = test system: HeLa; parameters: method as in earlier work; conditions: HeLa cell line; cited from earlier work
CYP3A4 = test system: CYP3A4; parameters: method as in PMID 25858508; conditions: human liver microsomes; cited from earlier work

Compound: CC1=CCC[C@]2(C)O[C@H]2CC(=C(C)C)C(=O)C1 [(4S,5S)-(+)-germacrone-4,5-epoxide]
IC50 (certain CYPs): 1000 nM

inhibition at 5 µM (CYP1A2): 92%
Compound: O=c1cc(-c2ccccc2)oc2c1ccc1ccccc12 [ANF, α-naphthoflavone, reference compound]

inhibition at 5 µM (CYP2B/3A; liver microsomes, human, 5 µM inhibitor): 66% | IC50 (CYP2B/3A; human liver microsomes): 2680 nM
Compound: CC(=O)N1CCN(c2ccc(OCC3COC(Cn4ccnc4)(c4ccc(Cl)cc4Cl)O3)cc2)CC1 (stereo not shown) [KET, ketoconazole, reference compound]

Compound: C=CC(C)(O)CC/C=C(\C)CCC=C(C)C (stereo not shown) [NER, Nerolidol]
concentration with strong anti-tumor effects (Jurkat): less than 5 µM | concentration with strong anti-tumor effects (HeLa): less than 5 µM

Compound: C=C1C(=O)O[C@@H]2C[C@@]3(C)CCC[C@H](C)C3=C[C@H]12 [alantolactone]
IC50 (CYP3A4): 3600 nM
